Assay results reported in US20100285145A1, “GPR 119 MODULATORS” (PFIZER INC, priority 2009, published 2010).
Where “and” joins values, the source holds several entries; their conditions need not be identical. Equal values may be shown once.

Key:
Type in all cases: cell-based
human GPR119 [1] = biological target: T1, human GPR119 (Homo sapiens, UniProt Q8TDV5); assay: β-Lactamase reporter functional assay (hGPR119 HEK293-CRE beta-lactamase cells); parameters: host or cells: HEK293-CRE beta-lactamase; Emax: dose or concentration left out as unconfirmed; conditions: for EC50: hGPR119 HEK293-CRE beta-lactamase cells, 16 h incubation, each line a separate determination, read-out: Human B-lactamase Functional EC50; for Emax / Intrinsic Activity (Human B-lactamase): percent of maximal activity relative to standard GPR119 agonist at 10 micromolar; for Emax: read-out: Intrinsic Activity (Human B-lactamase)
T1 sequence (Q8TDV5 1-335): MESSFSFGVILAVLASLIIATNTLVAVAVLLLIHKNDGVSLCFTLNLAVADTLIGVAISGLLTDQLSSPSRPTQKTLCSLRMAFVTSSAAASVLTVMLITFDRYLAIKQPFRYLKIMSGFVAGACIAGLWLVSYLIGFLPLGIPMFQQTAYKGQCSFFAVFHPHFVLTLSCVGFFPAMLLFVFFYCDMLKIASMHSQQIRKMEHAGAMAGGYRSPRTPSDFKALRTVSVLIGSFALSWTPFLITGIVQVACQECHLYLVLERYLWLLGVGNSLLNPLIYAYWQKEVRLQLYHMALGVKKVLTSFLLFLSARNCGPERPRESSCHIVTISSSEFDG
Experimental: The assay for GPR119 agonists utilizes a cell-based (hGPR119 HEK293-CRE beta-lactamase) reporter construct where agonist activation of human GPR119 is coupled to beta-lactamase production via a cyclic AMP response element (CRE). GPR119 activity is then measured utilizing a FRET-enabled beta-lactamase substrate, CCF4-AM (Live Blazer FRET-B/G Loading kit, Invitrogen cat #K1027). Specifically, hGPR119-HEK-CRE-beta-lactamase cells (Invitrogen 2.5×10^7/mL) were removed from liquid nitrogen storage, and diluted in plating medium (Dulbecco's modified Eagle medium high glucose (DMEM; Gibco Cat # 11995-065), 10% heat inactivated fetal bovine serum (HIFBS; Sigma Cat # F4135), 1×MEM Nonessential amino acids (Gibco Cat # 15630-080), 25 mM HEPES pH 7.0 (Gibco Cat # 15630-080), 200 nM potassium clavulanate (Sigma Cat # P3494). The cell concentration was adjusted using cell plating medium and 50 microL of this cell suspension ([…]) was added into each well of a black, clear bottom, poly-d-lysine coated 384-well plate (Greiner Bio-One cat# 781946) and incubated at 37 degrees Celsius in a humidified environment containing 5% carbon dioxide. After 4 hours the plating medium was removed and replaced with 40 microL of assay medium (Assay medium is plating medium without potassium clavulanate and HIFBS). Varying concentrations of each compound to be tested was then added in a volume of 10 microL (final DMSO ≦0.5%) and the cells were incubated for 16 hours at 37 degrees Celsius in a humidified environment containing 5% carbon dioxide. Plates were removed from the incubator and allowed to equilibrate to room temperature for approximately 15 minutes. 10 microL of 6×CCF4/AM working dye solution (prepared according to instructions in the Live Blazer FRET-B/G Loading kit, Invitrogen cat #K1027) was added per well and incubated at room temperature for 2 hours in the dark. Fluorescence was measured on an EnVision fluorimetric plate reader, excitation 405 nm, emission 460 nm/535 nm. EC50 determinations were made from agonist-response curves analyzed with a curve fitting program using a 4-parameter logistic dose-response equation.

human GPR119 [2] = biological target: T1, human GPR119; assay: cAMP HTRF functional assay (hGPR119 HEK-CRE beta-lactamase cells); parameters: host or cells: HEK293-CRE beta-lactamase; conditions: for EC50: HTRF cAMP, 30 min, 400 microM IBMX, each line a separate determination; for Intrinsic Activity (Human cAMP) / Emax: percent of maximal activity relative to standard GPR119 agonist at 10 micromolar; for Emax: read-out: Intrinsic Activity (Human cAMP)
Experimental: GPR119 agonist activity was also determined with a cell-based assay utilizing an HTRF (Homogeneous Time-Resolved Fluorescence) cAMP detection kit (cAMP dynamic 2 Assay Kit; Cis Bio cat #62AM4PEC) that measures cAMP levels in the cell. The method is a competitive immunoassay between native cAMP produced by the cells and the cAMP labeled with the dye d2. The tracer binding is visualized by a Mab anti-cAMP labeled with Cryptate. The specific signal (i.e. energy transfer) is inversely proportional to the concentration of cAMP in either standard or sample.
Specifically, hGPR119 HEK-CRE beta-lactamase cells (Invitrogen 2.5×10^7/mL; the same cell line used in the beta-lactamase assay described above) are removed from cryopreservation and diluted in growth medium (Dulbecco's modified Eagle medium high glucose (DMEM; Gibco Cat # 11995-065), 1% charcoal dextran treated fetal bovine serum (CD serum; HyClone Cat # SH30068.03), 1×MEM Nonessential amino acids (Gibco Cat # 15630-080) and 25 mM HEPES pH 7.0 (Gibco Cat # 15630-080)). The cell concentration was adjusted to 1.5×10^5 cells/mL and 30 mLs of this suspension was added to a T-175 flask and incubated at 37 degrees Celsius in a humidified environment in 5% carbon dioxide. After 16 hours (overnight), the cells were removed from the T-175 flask (by rapping the side of the flask), centrifuged at 800×g and then re-suspended in assay medium (1×HBSS+CaCl2+MgCl2 (Gibco Cat # 14025-092) and 25 mM HEPES pH 7.0 (Gibco Cat # 15630-080)). The cell concentration was adjusted to 6.25×10^5 cells/mL with assay medium and 8 μl of this cell suspension (5000 cells) was added to each well of a white Greiner 384-well, low-volume assay plate (VWR cat #82051-458).
Varying concentrations of each compound to be tested were diluted in assay buffer containing 3-isobutyl-1-methylxanthin (IBMX; Sigma cat #15879) and added to the assay plate wells in a volume of 2 microL (final IBMX concentration was 400 microM and final DMSO concentration was 0.58%). Following 30 minutes incubation at room temperature, 5 microL of labeled d2 cAMP and 5 microL of anti-cAMP antibody (both diluted 1:20 in cell lysis buffer; as described in the manufacturers assay protocol) were added to each well of the assay plate. The plates were then incubated at room temperature and after 60 minutes, changes in the HTRF signal were read with an Envision 2104 multilabel plate reader using excitation of 330 nm and emissions of 615 and 665 nm. Raw data were converted to nM cAMP by interpolation from a cAMP standard curve (as described in the manufacturer's assay protocol) and EC50 determinations were made from an agonist-response curves analyzed with a curve fitting program using a 4-parameter logistic dose response equation.

human GPR119 [3] = biological target: T1, human GPR119; assay: β-Arrestin PathHunter assay (U2OS hGPR119 β-arrestin cells); conditions: for Emax: U2OS, percent of maximal activity relative to standard GPR119 agonist at 10 micromolar, read-out: Intrinsic Activity (Human B-arrestin)
Experimental: GPR119 agonist activity was also determined with a cell-based assay utilizing DiscoverX PathHunter β-arrestin cell assay technology and their U2OS hGPR119 β-arrestin cell line (DiscoverX Cat # 93-0356C3). In this assay, agonist activation is determined by measuring agonist-induced interaction of β-arrestin with activated GPR119. A small, 42 amino acid enzyme fragment, called ProLink was appended to the C-terminus of GPR119. Arrestin was fused to the larger enzyme fragment, termed EA (Enzyme Acceptor). Activation of GPR119 stimulates binding of arrestin and forces the complementation of the two enzyme fragments, resulting in formation of a functional β-galactosidase enzyme capable of hydrolyzing substrate and generating a chemiluminescent signal.
Specifically, U2OS hGPR119 β-arrestin cells (DiscoverX 1×10^7/mL) are removed from cryopreservation and diluted in growth medium (Minimum essential medium (MEM; Gibco Cat # 11095-080), 10% heat inactivated fetal bovine serum (HIFBS; Sigma Cat # F4135-100), […] sodium pyruvate (Sigma Cat # S8636), 500 microg/mL G418 (Sigma Cat # G8168) and 250 microg/mL Hygromycin B (Invitrogen Cat # 10687-010). The cell concentration was adjusted to 1.66×10^5 cells/mL and 30 mLs of this suspension was added to a T-175 flask and incubated at 37 degrees Celsius in a humidified environment in 5% carbon dioxide. After 24 hours, the cells were removed from the T-175 flask with enzyme-free cell dissociation buffer (Gibco cat #13151-014), centrifuged at 800×g and then re-suspended in plating medium (Opti-MEM I (Invitrogen/BRL Cat # 31985-070) and 2% charcoal dextran treated fetal bovine serum (CD serum; HyClone Cat # SH30068.03).
The cell concentration was adjusted to 2.5×10^5 cells/mL with plating medium and 20 microliters of this cell suspension (5000 cells) was added to each well of a white Greiner 384-well low volume assay plate (VWR cat #82051-458) and the plates were incubated at 37 degrees Celsius in a humidified environment in 5% carbon dioxide.
After 16 hours (overnight) the assay plates were removed from the incubator and varying concentrations of each compound to be tested (diluted in assay buffer (1×HBSS+CaCl2+MgCl2 (Gibco Cat # 14025-092), 20 mM HEPES pH 7.0 (Gibco Cat # 15630-080) and 0.1% BSA (Sigma Cat # A9576)) were added to the assay plate wells in a volume of 5 microliters (final DMSO concentration was 0.5%). After a 90 minute incubation at 37 degrees Celsius in a humidified environment in 5% carbon dioxide, 12 microliters of Galacton Star β-galactosidase substrate (PathHunter Detection Kit (DiscoveRx Cat # 93-0001); prepared as described in the manufacturers assay protocol) was added to each well of the assay plate. The plates were incubated at room temperature and after 60 minutes, changes in the luminescence were read with an Envision 2104 multilabel plate reader at 0.1 seconds per well. EC50 determinations were made from an agonist-response curves analyzed with a curve fitting program using a 4-parameter logistic dose response equation.

Cc1c(O[C@H]2[C@@H]3COC[C@H]2CN(C(=O)OC(C)C)C3)ncnc1N1CCc2cc(S(C)(=O)=O)ccc21 [Example 24, Isopropyl (9-anti)-9-({5-methyl-6-[5-(methylsulfonyl)-2,3-d hydro-1H-indol-1-yl]pyrimidin-4-yl}oxy)-3-oxa-7-azabicyclo[3.3.1]nonane-7-carboxylate]
EC50 (human GPR119 [1]): 111 nM | Emax (human GPR119 [1]): 100%

CC(C)OC(=O)N1C[C@H]2COC[C@@H](C1)[C@H]2Oc1ncnc(N2CCc3cc(S(C)(=O)=O)ccc32)c1C#N [Example 5]
EC50 (human GPR119 [1]): 11.5 nM and 12.5 nM | Intrinsic Activity (Human B-lactamase) (human GPR119 [1]): 100% | Emax (human GPR119 [1]): 98.1% | EC50 (human GPR119 [2]): 357 nM and 602 nM and 1750 nM and 1330 nM and 1800 nM and 3140 nM

Cc1c(O[C@@H]2[C@@H]3COC[C@H]2CN(C(=O)OC2(C)CC2)C3)ncnc1N1CCc2ncccc21 [Example 28, 1-Methylcyclopropyl (9-syn)-9-{[6-(2,3-dihydro-1H-pyrrolo[3,2-b]pyridin-1-yl)-5-methylpyrimidin-4-yl]oxy}-3-oxa-7-azabicyclo[3.3.1]nonane-7-carboxylate]
Intrinsic Activity (Human cAMP) (human GPR119 [2]): 37% and 36% | Emax (human GPR119 [2]): 41.9% | Emax (human GPR119 [3]): 32.1%

CN(C)C(=O)c1ccc2c(n1)CCN2c1cc(OC2CCN(C(=O)OC3(C)CC3)CC2)ncn1 [Example 33, 1-Methylcyclopropyl 4-({6-[5-(dimethylcarbamoyl)-2,3-dihydro-1H-pyrrolo[3,2-b]pyridin-1-yl]pyrimidin-4-yl}oxy)piperidine-1-carboxylate]
EC50 (human GPR119 [2]): 1550 nM | Emax (human GPR119 [2]): 154%

Cc1c(O[C@H]2CCN(C(=O)OC3(C)CC3)C[C@H]2F)ncnc1N1CCc2ncccc21 (racemic) [Example 19, 1-Methylcyclopropyl (3R,4S)-4-{[6-(2,3-dihydro-1H-pyrrolo[3,2-b]pyridin-1-yl)-5-methylpyrimidin-4-yl]oxy}-3-fluoropiperidine-1-carboxylate (racemic)]
EC50 (human GPR119 [2]): 19.4 nM | Emax (human GPR119 [2]): 57.9% | EC50 (human GPR119 [3]; U2OS hGPR119 β-arrestin cells, 90 min, each line a separate determination, read-out: Human B-arrestin Functional EC50): 6.31 nM | Emax (human GPR119 [3]): 74%

CC1(OC(=O)N2CC[C@H](Oc3cc(N4CCc5nc(C(N)=O)ccc54)ncn3)[C@H](F)C2)CC1 (racemic) [Example 32, 1-Methylcyclopropyl (3R,4S)-4-{[6-(5-carbamoyl-2,3-dihydro-1H-pyrrolo[3,2-b]pyridin-1-yl)pyrimidin-4-yl]oxy}-3-fluoropiperidine-1-carboxylate]
EC50 (human GPR119 [2]): 273 nM | Emax (human GPR119 [2]): 147%

CC(C)OC(=O)N1C[C@H]2COC[C@@H](C1)[C@@H]2Oc1cc(N2CCc3cc(S(C)(=O)=O)ccc32)ncn1 [Example 2, Isopropyl 9-syn-({6-[5-(methylsulfonyl)-2,3-dihydro-1H-indol-1-yl]pyrimidin-4-yl}oxy)-3-oxa-7-azabicyclo[3.3.1]nonane-7-carboxylate]
EC50 (human GPR119 [1]): 343 nM and 51.3 nM and 38.2 nM | Intrinsic Activity (Human B-lactamase) (human GPR119 [1]): 106% | Emax (human GPR119 [1]): 98%

CC(C)OC(=O)N1CCC(Oc2cc(N3CCc4cc(S(C)(=O)=O)cnc43)ncn2)CC1 [Example 14, Isopropyl 4-({6-[5-(methylsulfonyl)-2,3-dihydro-1H-pyrrolo[2,3-b]pyridin-1-yl]pyrimidin-4-yl}oxy)piperidine-1-carboxylate]
EC50 (human GPR119 [1]): 7270 nM | Emax (human GPR119 [1]): 98.1% | EC50 (human GPR119 [2]): > 10000 nM

CC(C)OC(=O)N1C[C@H]2COC[C@@H](C1)[C@@H]2Oc1ncnc(N2CCc3cc(S(C)(=O)=O)ccc32)c1C#N [Example 4]
EC50 (human GPR119 [1]): 9.16 nM | Emax (human GPR119 [1]): 87.9% | Intrinsic Activity (Human cAMP) (human GPR119 [2]): 36% and 35.3% | Emax (human GPR119 [2]): 36.2%
